Results published in patent US9493440B2, “Compounds inhibiting leucine-rich repeat kinase enzyme activity” (Merck Sharp & Dohme Corp., priority 2013, dated 2016).

Experiments:
Type in all cases: biochemical
Conditions in all cases: 1 μM of the Example
CLK2 = CLK2 (Homo sapiens (Human), UniProt P49760); experiment: Kinase selectivity, Z'-LYTE assay platform
IRAK1 = IRAK1 (Homo sapiens (Human), UniProt P51617); experiment: Kinase selectivity, Adapta assay platform
AURKB (Aurora B) = AURKB (Aurora B) (Homo sapiens (Human), UniProt Q96GD4); experiment: Kinase selectivity, Z'-LYTE assay platform
Sequence of AURKB (Aurora B) (Q96GD4 whole entry): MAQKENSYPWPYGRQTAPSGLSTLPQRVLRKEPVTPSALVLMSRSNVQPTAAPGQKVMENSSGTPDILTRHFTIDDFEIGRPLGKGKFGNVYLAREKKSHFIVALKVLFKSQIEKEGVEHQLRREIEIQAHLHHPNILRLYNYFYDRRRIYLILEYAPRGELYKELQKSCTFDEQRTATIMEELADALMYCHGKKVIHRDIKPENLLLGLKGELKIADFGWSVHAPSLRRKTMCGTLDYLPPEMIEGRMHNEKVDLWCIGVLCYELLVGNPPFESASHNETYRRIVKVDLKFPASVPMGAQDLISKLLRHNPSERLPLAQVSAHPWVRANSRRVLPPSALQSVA

BRAF V599E = BRAF V599E (Homo sapiens (Human), UniProt P15056, V600E); experiment: Kinase selectivity, Z'-LYTE assay platform
Sequence of BRAF V599E (P15056 416-766 V600E limits assumed): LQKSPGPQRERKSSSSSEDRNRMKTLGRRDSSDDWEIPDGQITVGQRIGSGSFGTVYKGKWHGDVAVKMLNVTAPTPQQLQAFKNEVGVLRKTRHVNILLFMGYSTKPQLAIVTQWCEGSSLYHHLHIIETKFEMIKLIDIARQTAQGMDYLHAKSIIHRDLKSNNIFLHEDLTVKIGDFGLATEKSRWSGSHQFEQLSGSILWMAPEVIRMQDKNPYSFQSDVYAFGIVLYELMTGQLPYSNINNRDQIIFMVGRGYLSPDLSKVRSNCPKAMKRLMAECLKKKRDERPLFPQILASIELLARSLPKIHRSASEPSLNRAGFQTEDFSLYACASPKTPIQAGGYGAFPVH

DYRK1A = DYRK1A (Homo sapiens (Human), UniProt Q13627); experiment: Kinase selectivity, Z'-LYTE assay platform
JAK3 = JAK3 (Homo sapiens (Human), UniProt P52333); experiment: Kinase selectivity, Z'-LYTE assay platform
Sequence of JAK3 (P52333 whole entry): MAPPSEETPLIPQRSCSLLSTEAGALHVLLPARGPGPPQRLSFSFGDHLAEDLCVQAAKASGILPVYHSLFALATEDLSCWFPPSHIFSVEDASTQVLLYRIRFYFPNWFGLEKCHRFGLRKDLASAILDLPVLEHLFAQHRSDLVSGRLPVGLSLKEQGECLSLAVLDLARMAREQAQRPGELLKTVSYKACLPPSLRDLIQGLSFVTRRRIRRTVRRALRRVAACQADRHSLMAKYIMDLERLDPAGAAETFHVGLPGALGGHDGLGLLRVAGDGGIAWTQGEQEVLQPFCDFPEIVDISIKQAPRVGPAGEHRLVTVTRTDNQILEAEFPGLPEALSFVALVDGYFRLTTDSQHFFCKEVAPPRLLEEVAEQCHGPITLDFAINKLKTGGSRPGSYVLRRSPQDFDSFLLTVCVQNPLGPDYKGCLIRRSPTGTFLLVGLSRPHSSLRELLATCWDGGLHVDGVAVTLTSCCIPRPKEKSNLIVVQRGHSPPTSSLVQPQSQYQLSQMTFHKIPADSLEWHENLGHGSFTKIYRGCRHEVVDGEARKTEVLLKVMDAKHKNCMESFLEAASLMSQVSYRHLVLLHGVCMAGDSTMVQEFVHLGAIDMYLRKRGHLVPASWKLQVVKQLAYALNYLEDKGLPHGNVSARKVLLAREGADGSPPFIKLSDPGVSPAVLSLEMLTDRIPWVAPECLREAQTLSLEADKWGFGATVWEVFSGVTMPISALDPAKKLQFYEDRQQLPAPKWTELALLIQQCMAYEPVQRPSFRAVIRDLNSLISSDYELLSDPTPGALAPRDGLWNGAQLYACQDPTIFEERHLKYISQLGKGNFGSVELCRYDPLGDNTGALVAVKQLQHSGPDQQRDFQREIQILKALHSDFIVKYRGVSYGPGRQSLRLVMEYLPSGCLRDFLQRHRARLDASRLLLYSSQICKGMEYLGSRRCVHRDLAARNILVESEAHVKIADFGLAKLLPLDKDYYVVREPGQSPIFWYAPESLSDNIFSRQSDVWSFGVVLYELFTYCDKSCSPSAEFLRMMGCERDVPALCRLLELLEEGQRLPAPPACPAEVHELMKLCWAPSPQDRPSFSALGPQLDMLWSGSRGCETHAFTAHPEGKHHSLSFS

CDK1/cyclin B = CDK1/cyclin B (Homo sapiens (Human), UniProt P06493); experiment: Kinase selectivity, Z'-LYTE assay platform
Sequence of CDK1/cyclin B (P06493 whole entry): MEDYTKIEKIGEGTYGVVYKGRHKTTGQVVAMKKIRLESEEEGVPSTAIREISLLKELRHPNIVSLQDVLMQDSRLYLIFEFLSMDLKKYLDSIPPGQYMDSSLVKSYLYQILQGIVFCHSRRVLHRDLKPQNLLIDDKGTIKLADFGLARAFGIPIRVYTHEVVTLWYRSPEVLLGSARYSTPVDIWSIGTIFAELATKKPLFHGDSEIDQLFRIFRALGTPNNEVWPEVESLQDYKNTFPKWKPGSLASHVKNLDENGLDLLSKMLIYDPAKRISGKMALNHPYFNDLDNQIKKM
Sequence of CDK1/cyclin B (P14635 whole entry partner): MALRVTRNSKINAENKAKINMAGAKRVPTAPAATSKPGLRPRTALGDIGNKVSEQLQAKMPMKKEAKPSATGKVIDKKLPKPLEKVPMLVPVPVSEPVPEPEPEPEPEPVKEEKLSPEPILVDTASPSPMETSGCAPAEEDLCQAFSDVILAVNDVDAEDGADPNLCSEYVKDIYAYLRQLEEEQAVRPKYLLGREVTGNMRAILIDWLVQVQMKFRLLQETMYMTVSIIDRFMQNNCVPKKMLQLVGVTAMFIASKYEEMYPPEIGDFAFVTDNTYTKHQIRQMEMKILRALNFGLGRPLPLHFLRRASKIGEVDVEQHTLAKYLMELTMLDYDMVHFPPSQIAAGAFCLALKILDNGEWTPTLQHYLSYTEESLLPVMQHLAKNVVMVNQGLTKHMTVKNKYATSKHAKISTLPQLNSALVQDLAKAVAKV

MAPK8 (JNK1) = MAPK8 (JNK1) (Homo sapiens (Human), UniProt P45983); experiment: Kinase selectivity, Z'-LYTE assay platform
Sequence of MAPK8 (JNK1) (P45983 whole entry): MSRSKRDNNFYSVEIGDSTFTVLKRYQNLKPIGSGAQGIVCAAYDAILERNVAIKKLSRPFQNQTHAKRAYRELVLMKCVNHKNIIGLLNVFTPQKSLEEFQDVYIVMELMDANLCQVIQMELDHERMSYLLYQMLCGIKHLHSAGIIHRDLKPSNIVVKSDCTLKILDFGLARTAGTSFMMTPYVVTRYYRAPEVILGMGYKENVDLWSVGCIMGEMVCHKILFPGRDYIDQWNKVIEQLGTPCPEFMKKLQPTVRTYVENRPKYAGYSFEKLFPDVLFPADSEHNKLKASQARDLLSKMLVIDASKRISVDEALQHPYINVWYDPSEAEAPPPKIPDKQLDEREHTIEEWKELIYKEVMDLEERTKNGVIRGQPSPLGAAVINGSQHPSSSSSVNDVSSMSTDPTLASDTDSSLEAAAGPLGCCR

MAPK1 (ERK2) = MAPK1 (ERK2) (Homo sapiens (Human), UniProt P28482); experiment: Kinase selectivity, Z'-LYTE assay platform
Sequence of MAPK1 (ERK2) (P28482 whole entry): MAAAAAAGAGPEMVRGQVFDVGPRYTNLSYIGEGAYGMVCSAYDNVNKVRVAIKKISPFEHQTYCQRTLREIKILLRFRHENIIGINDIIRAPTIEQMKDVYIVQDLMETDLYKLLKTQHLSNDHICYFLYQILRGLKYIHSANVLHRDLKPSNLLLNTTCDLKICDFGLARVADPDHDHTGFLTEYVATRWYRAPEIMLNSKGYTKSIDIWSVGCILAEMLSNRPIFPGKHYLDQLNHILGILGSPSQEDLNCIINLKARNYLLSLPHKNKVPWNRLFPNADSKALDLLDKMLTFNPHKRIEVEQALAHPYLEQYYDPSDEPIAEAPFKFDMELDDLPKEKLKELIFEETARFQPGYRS

CHEK2 (CHK2) = CHEK2 (CHK2) (Homo sapiens (Human), UniProt O96017); experiment: Kinase selectivity, Z'-LYTE assay platform
Sequence of CHEK2 (CHK2) (O96017 whole entry): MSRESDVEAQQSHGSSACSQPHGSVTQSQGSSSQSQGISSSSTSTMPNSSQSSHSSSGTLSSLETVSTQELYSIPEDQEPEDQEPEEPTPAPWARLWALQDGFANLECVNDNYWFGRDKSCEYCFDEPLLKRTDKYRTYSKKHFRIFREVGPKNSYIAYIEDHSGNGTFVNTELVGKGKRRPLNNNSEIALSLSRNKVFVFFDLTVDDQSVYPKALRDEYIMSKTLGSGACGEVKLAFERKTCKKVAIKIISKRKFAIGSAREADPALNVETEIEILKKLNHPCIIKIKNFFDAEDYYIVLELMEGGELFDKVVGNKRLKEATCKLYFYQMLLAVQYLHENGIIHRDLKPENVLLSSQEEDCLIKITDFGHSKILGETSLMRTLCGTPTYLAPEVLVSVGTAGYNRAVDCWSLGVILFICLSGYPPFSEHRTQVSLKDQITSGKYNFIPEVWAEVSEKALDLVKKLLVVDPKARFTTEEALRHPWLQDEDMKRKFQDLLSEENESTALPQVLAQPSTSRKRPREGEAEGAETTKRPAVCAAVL

Sequence of IRAK1 (P51617 whole entry): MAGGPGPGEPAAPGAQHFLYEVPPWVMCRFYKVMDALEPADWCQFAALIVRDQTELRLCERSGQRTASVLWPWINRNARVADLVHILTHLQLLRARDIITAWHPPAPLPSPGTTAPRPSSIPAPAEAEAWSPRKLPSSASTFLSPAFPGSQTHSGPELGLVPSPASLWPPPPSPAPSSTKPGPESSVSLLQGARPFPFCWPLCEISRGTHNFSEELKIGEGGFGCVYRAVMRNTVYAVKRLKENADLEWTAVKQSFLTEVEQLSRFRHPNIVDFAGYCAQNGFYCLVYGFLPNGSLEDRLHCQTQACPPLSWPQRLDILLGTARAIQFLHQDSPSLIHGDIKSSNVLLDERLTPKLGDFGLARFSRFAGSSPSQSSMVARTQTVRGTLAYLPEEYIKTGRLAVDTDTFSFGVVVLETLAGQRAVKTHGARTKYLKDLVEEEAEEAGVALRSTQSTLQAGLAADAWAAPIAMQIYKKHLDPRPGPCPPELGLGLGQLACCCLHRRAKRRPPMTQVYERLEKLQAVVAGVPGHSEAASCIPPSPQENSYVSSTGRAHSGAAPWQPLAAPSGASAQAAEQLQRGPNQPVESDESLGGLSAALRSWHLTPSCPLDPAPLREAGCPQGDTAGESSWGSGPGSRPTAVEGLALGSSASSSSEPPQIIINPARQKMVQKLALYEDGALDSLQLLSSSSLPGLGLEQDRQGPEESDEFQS

SMILES | percent inhibition CLK2 (CLK2) [%] | percent inhibition IRAK1 (IRAK1) [%] | percent inhibition AURKB (Aurora B) (AURKB (Aurora B)) [%] | percent inhibition BRAF V599E (BRAF V599E) [%] | percent inhibition DYRK1A (DYRK1A) [%] | percent inhibition JAK3 (JAK3) [%] | percent inhibition CDK1/cyclin B (CDK1/cyclin B) [%] | percent inhibition MAPK8 (JNK1) (MAPK8 (JNK1)) [%] | percent inhibition MAPK1 (ERK2) (MAPK1 (ERK2)) [%] | percent inhibition CHEK2 (CHK2) (CHEK2 (CHK2)) [%]
CO[C@H]1CCN(c2cc(-c3n[nH]c4ccc(OC5(C)CC5)cc34)ncn2)C1 [Example 12] | 53 | 31 | 37 | 11 | 5 | 12 | 43 | 40 | 10 | 17
CC1(Oc2ccc3[nH]nc(-c4cc(N5CCOCC5)ncn4)c3c2)CC1 [Example 1] | 57 | 23 | 28 | 24 | 16 | 7 | 10 | 56 | 8 | 21
C[C@@H]1CN(c2cc(-c3n[nH]c4ccc(OC5(C)CC5)cc34)ncn2)C[C@H](C)O1 [Example 51] | 55 | −15 | 16 | 10 | 4 | 7 | 1 | 0 | −4 | 15
